Reference: paper PMC9005681, “Use of AD Informer Set compounds to explore validity of novel targets in Alzheimer's disease pathology” (Alzheimer's & Dementia : Translational Research & Clinical …, 2022)
Like-named read-outs stand apart in the source and are kept apart here.

How the values were obtained:
[1] = mouse, IV, published PK values, cited from earlier work
CAPN2 = tested on: CAPN2; parameters: method as in Probe Miner, PubMed 9637399, 31133534, 30052328; details: published affinity; ref Probe Miner, PubMed 9637399, 31133534, 30052328; cited from earlier work
[2] = cited from earlier work
[3] = biological target: T1, norepinephrine transporter (Homo sapiens, UniProt P23975); test: PDSP secondary binding, norepinephrine transporter; parameters: species or system human or rodent
T1 construct: expressed in transfected cells
Method: (§1) GPCR panel: Screening against the receptors within the PDSP panel offers an assessment of off-target pharmacological activity at cloned human or rodent CNS receptors, channels, and transporters that could confound CNS-related phenotypes. A total of 46–47 primary binding assays were run in quadruplicate on these compounds at 10 μM, with follow-up secondary binding assays in 11-point dose-response in triplicate for select compounds versus select receptors. Secondary binding assays were executed for all receptors where test compound displaced an average of >50% of radio-labeled standard ligand. As an exception, no secondary assays were carried out for H3, PBR, or GABAA. […]

serotonin transporter = biological target: T2, serotonin transporter (Homo sapiens, UniProt P31645); test: PDSP secondary binding, serotonin transporter; parameters: species or system human or rodent
T2 construct: expressed in transfected cells
Method: as §1

MerTK = tested on: MerTK; parameters: method as in PubMed 25068800, 27649555; details: published affinity; ref PubMed 25068800, 27649555; cited from earlier work
H4 receptor = biological target: T3, H4 receptor (Homo sapiens, UniProt Q9H3N8); test: PDSP secondary binding, H4; parameters: species or system human or rodent
T3 construct: expressed in transfected cells
Method: as §1

Alpha1D receptor = biological target: T4, Alpha1D receptor (Homo sapiens, UniProt P25100); test: PDSP secondary binding, Alpha1D; parameters: species or system human or rodent
T4 construct: expressed in transfected cells
Method: as §1

5-HT2A receptor = biological target: T5, 5-HT2A receptor (Homo sapiens, UniProt P28223); test: PDSP secondary binding, 5-HT2A; parameters: species or system human or rodent
T5 construct: expressed in transfected cells
Method: as §1

FLT3 = tested on: FLT3; parameters: method as in PubMed 25068800, 27649555; details: published affinity; ref PubMed 25068800, 27649555; cited from earlier work
[4] = tested on: HMC3 (human microglia) immortalized cell line; details: 10 μM, human immortalized microglial cells; cited from earlier work
[5] = tested on: N2a cells stably expressing wild-type PS1 and myc-tagged Swedish mutant APP (APPsw); parameters: method as in PMID 16354722; details: cited from earlier work
EPHX2 = tested on: EPHX2; parameters: method as in column References for potency and dosing (the 5th table c13); details: cited from earlier work
[6] = tested on: tau hyperphosphorylation species (Ser396 and Ser404); parameters: method as in PMID 32488482; details: 5 mg/kg/day; cited from earlier work
human nerve cells = tested on: human nerve cells; parameters: method as in PMID 31378059; details: cited from earlier work

T5 sequence (P28223 whole entry): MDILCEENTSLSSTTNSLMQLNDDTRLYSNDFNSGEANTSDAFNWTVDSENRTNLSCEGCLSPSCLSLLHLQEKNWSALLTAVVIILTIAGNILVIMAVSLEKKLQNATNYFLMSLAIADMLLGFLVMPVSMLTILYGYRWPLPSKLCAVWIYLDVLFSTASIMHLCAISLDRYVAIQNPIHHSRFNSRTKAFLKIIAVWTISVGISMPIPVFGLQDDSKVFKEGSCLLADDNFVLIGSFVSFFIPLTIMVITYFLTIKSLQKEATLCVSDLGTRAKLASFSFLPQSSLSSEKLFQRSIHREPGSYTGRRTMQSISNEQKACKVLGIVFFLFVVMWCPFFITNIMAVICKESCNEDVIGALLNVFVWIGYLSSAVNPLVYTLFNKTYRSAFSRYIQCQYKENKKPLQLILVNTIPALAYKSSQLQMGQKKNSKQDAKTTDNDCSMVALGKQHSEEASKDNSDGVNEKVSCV
T2 sequence (P31645 whole entry): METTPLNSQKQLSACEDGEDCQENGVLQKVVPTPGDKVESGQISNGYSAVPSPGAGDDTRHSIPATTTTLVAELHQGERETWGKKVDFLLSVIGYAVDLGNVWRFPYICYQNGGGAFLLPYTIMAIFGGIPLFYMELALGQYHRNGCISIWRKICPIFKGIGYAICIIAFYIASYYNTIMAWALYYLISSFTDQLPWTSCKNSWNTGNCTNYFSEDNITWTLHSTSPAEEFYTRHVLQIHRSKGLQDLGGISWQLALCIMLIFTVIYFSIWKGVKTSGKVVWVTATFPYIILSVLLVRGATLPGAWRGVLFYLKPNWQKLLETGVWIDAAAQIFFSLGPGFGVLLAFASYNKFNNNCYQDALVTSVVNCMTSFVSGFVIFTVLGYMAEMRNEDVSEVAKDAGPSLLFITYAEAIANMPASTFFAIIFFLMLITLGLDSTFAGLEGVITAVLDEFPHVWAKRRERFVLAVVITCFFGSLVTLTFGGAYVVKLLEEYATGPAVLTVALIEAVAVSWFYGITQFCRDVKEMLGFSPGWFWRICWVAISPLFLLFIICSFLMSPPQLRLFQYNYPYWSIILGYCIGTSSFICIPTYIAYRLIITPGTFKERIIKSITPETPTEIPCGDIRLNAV
T4 sequence (P25100 whole entry): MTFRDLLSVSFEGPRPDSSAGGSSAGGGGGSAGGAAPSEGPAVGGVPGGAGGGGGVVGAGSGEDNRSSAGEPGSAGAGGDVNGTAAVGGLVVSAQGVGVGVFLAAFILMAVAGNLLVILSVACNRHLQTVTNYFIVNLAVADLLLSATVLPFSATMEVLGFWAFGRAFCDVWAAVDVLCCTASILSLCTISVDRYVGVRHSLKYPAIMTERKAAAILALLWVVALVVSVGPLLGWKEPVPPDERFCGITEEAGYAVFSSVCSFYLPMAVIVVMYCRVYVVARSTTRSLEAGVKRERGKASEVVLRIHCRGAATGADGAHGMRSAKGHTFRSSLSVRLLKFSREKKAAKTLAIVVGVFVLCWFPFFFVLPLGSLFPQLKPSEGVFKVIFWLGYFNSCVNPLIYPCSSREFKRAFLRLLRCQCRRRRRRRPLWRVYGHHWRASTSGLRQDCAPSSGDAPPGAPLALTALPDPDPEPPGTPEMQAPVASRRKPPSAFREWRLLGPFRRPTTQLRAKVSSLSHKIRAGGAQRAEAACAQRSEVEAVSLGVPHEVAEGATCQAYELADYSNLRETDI
T1 sequence (P23975 whole entry): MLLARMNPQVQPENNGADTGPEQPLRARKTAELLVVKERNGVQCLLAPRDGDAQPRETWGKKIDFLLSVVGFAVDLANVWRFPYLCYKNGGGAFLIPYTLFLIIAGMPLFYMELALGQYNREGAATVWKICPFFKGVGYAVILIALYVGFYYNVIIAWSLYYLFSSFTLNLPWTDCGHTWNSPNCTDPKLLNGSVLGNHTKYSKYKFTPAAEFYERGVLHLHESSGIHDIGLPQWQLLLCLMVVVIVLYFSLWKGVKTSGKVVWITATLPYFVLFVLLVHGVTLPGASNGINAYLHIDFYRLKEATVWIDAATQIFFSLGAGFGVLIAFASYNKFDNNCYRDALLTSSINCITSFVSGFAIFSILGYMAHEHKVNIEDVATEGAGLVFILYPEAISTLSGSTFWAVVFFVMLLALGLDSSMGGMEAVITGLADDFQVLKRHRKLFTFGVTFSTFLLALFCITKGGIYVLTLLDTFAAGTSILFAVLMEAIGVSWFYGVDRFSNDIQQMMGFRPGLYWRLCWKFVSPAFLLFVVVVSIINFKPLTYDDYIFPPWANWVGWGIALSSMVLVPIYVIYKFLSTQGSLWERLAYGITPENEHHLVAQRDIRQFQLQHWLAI
T3 sequence (Q9H3N8 whole entry): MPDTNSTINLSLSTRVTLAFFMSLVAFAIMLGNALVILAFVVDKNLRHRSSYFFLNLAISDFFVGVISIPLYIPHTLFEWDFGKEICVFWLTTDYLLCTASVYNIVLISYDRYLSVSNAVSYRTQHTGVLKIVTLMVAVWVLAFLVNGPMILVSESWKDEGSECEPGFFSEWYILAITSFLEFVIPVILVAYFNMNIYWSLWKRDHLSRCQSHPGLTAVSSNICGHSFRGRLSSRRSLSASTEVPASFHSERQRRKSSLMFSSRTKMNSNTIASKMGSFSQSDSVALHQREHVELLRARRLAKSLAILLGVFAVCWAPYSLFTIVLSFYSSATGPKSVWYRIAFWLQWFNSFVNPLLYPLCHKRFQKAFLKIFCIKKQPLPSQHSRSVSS

Which AUClast ([1]; 2.0 mg/kg) does the source give for `O=C(NC1CC1)C(=O)C(Cc1ccccc1)NC(=O)[C@H]1CCC(=O)N1Cc1ccccc1` (stereo partly drawn) [UNC10302676A, ABT-957 (Alicapistat)] here?
The AUClast was 35.6 µM·h.

What about the CL ([1]; 2.0 mg/kg) of the same compound?
The CL was 7.8 mL/min/kg.

And the “Reported on-target biochemical potency, CAPN2” value (CAPN2)?
Its value is 56 nM.

For `CC(=O)N1CCC(NC(=O)NC23CC4CC(CC(C4)C2)C3)CC1` [UNC10302683A, AR9281], which Reported brain penetrance ([2]; in vivo) is on record?
The Reported brain penetrance was “brain penetrant”.

For `CCCCNc1ncc2c(-c3ccc(CN4CCN(C)CC4)cc3)cn([C@H]3CC[C@H](O)CC3)c2n1` [UNC2025C, UNC2025], which Ki ([3]; Receptor NET, secondary assay, read-out: Ki (nM) 1) is on record?
Its Ki is 1400 nM.

And the Ki ([3]; calculated Ki, secondary binding assay, read-out: Ki norepinephrine transporter)?
The Ki was 1400 nM.

What about the Ki (serotonin transporter; Receptor SERT, secondary assay, read-out: Ki (nM) 1) of the same compound?
The Ki was 906 nM.

And the Ki (serotonin transporter; calculated Ki, secondary binding assay, read-out: Ki serotonin transporter)?
Its Ki is 900 nM.

And the “Reported on-target biochemical potency, MERTK” value (MerTK)?
Its value is 0.74 nM.

What about the AUClast ([1]; 3.0 mg/kg) of the same compound?
The AUClast was 9.78 µM·h.

What about the Cmax ([1]; 3.0 mg/kg) of the same compound?
Its Cmax is 4.36 µM.

And the Vss ([1]; 3.0 mg/kg)?
Its Vss is 2.33 L/kg.

And the Ki (H4 receptor; Receptor H4, secondary assay, read-out: Ki (nM) 1)?
Its Ki is 4000 nM.

What about the Ki (H4 receptor; calculated Ki, secondary binding assay, read-out: Ki H4) of the same compound?
The Ki was 4000 nM.

What about the Ki (Alpha1D receptor; Receptor Alpha1D, secondary assay, read-out: Ki (nM) 1) of the same compound?
Its Ki is 4960 nM.

And the Ki (Alpha1D receptor; calculated Ki, secondary binding assay, read-out: Ki Alpha1D)?
The Ki was 5000 nM.

What about the Ki (5-HT2A receptor; Receptor 5-HT2A, secondary assay, run 1, read-out: Ki (nM) 1) of the same compound?
Its Ki is 366 nM.

What about the Ki (5-HT2A receptor; Receptor 5-HT2A, secondary assay, run 2, read-out: Ki (nM) 2) of the same compound?
The Ki was 462 nM.

And the Ki (5-HT2A receptor; calculated Ki, secondary binding assay, read-out: Ki 5-HT2A)?
The Ki was 400 nM.

And the “Reported on-target biochemical potency, FLT3” value (FLT3)?
The value was 0.8 nM.

And the “Human microglial cytotoxicity at 10 μM (<70% control)” value [4]?
Its value is “Y (The compound was found to be cytotoxic (cell count threshold: <70% control) when human immortalized microglial cells were dosed at 10 μM (Y: yes))”.

For MDL 28170 [UNC10302675A], which “Secretion of Aβ40 and Aβ42” value ([5]; 30 μM for 24 hours) is on record?
The value was “did not inhibit”.

What about the “Levels of secreted Aβ40 and Aβ42” value ([5]; 30 μM, between 24 and 48 hours) of the same compound?
Its value is “increased dramatically”.

And the “Response in secreted Aβ40 or Aβ42” value ([5]; concentrations < 5 μM, 48 hours)?
The value was “did not result in a response”.

And the “Reported on-target biochemical potency, CAPN2” value (CAPN2)?
Its value is 0.01 nM.

For `CNc1nc(C)nc(N[C@H]2CCC[C@@H](C(=O)NCc3ccc(C#N)cc3C(F)(F)F)C2)n1` [UNC10302679A, GSK2256294A], which “Reported on-target biochemical potency, EPHX2” value (EPHX2; published affinity, References for potency and dosing) is on record?
The value was 0.027 nM.

For `CCC(=O)N1CCC(NC(=O)Nc2ccc(OC(F)(F)F)cc2)CC1` [UNC10302681A, TPPU], which “Tau hyperphosphorylation species (Ser396 and Ser404)” value [6] is on record?
The value was “reduction of tau hyperphosphorylation species”.

What about the “Reported on-target biochemical potency, EPHX2” value (EPHX2) of the same compound?
The value was 3.7 nM.

What about the Tau hyperphosphorylation (human nerve cells) of the same compound?
Its Tau hyperphosphorylation is “prevent tau hyperphosphorylation”.

And the Reported brain penetrance [2]?
The Reported brain penetrance was “brain penetrant”.
